ChEMBL document CHEMBL1201862, “PubChem BioAssay data set” (2004)
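In this assay, cells in 96-well plates receive the compound at five concentrations for 48 hours. Endpoints are linearly interpolated between the surrounding concentrations. GI50 = concentration required for 50% inhibition of growth.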 The source made the active and inactive calls. Rule as the data show it: active = GI50 up to about 1.1 µM and inactive = higher.

Columns and labels:
Assay in all cases: growth of human tumour cells (NCI), 48 h
[1] = system: ACHN
[2] = system: SNB-75
[3] = system: SR
[4] = system: SK-MEL-28
[5] = system: SK-OV-3
[6] = system: COLO 205
[7] = system: KM12
[8] = system: NCI-H522
[9] = system: A549
[10] = system: DMS-114
[11] = system: K562
[12] = system: UACC-62
[13] = system: SF-268
[14] = system: EKVX
[15] = system: HT-29
[16] = system: HOP-92

C1CCOC2(CCC3(CC2)OCCCCO3)OC1
GI50 [1]: > 100 µM (inactive)
GI50 [2]: > 100 µM (inactive)
GI50 [3]: > 100 µM (inactive)
GI50 [4]: > 100 µM (inactive)
GI50 [5]: > 100 µM (inactive)
GI50 [6]: > 100 µM (inactive)
GI50 [7]: > 100 µM (inactive)
GI50 [8]: > 100 µM (inactive)
GI50 [9]: > 100 µM (inactive)
GI50 [10]: > 100 µM (inactive)
GI50 [11]: > 100 µM (inactive)
GI50 [12]: > 100 µM (inactive)
GI50 [13]: > 100 µM (inactive)

CC(=O)O[C@]1(C)OC(=O)[C@@H](CC(C)C)N1[N+](=O)[O-]
GI50 [1]: > 100 µM (inactive)
GI50 [2]: > 100 µM (inactive)
GI50 [3]: > 100 µM (inactive)
GI50 [4]: > 100 µM (inactive)
GI50 [5]: > 100 µM (inactive)
GI50 [6]: > 100 µM (inactive)
GI50 [7]: > 100 µM (inactive)
GI50 [8]: > 100 µM (inactive)
GI50 [9]: > 100 µM (inactive)
GI50 [10]: > 100 µM (inactive)
GI50 [11]: > 100 µM (inactive)
GI50 [14]: > 100 µM (inactive)
GI50 [15]: > 100 µM (inactive)
GI50 [12]: > 100 µM (inactive)

COc1ccc(C2S/C(=C\c3cccc([N+](=O)[O-])c3)C(=O)N2NC(=O)Cc2ccccc2)cc1 (stereo unspecified)
GI50 [1]: > 100 µM (inactive)
GI50 [2]: > 100 µM (inactive)
GI50 [3]: > 100 µM (inactive)
GI50 [16]: > 100 µM (inactive)
GI50 [4]: > 100 µM (inactive)
GI50 [5]: > 100 µM (inactive)
GI50 [6]: > 100 µM (inactive)
GI50 [7]: > 100 µM (inactive)
GI50 [8]: > 100 µM (inactive)
GI50 [9]: > 100 µM (inactive)
GI50 [10]: > 100 µM (inactive)
GI50 [11]: > 100 µM (inactive)
GI50 [15]: > 100 µM (inactive)
GI50 [12]: > 100 µM (inactive)
GI50 [13]: > 100 µM (inactive)

CC(=O)Nc1ccc(-c2nnc(SCC(=O)Nc3ccccc3[N+](=O)[O-])o2)cc1
GI50 [1]: > 100 µM (inactive)
GI50 [2]: 92.7 µM (inactive)
GI50 [3]: 40.7 µM (inactive)
GI50 [16]: > 100 µM (inactive)
GI50 [4]: > 100 µM (inactive)
GI50 [5]: > 100 µM (inactive)
GI50 [6]: > 100 µM (inactive)
GI50 [7]: > 100 µM (inactive)
GI50 [8]: 45.9 µM (inactive)
GI50 [9]: > 100 µM (inactive)
GI50 [10]: 27.9 µM (inactive)
GI50 [11]: 93.1 µM (inactive)
GI50 [15]: > 100 µM (inactive)
GI50 [12]: > 100 µM (inactive)
GI50 [13]: > 100 µM (inactive)

O=[N+]([O-])c1ccc(C2N3CCCCC3[C@@H]3c4[nH]c5ccccc5c4CCN23)cc1 (stereo partly specified)
GI50 [1]: 12.8 µM (inactive)
GI50 [2]: 0.0638 µM (active)
GI50 [3]: 3.12 µM (inactive)
GI50 [16]: 44.6 µM (inactive)
GI50 [4]: 16.3 µM (inactive)
GI50 [5]: 22.6 µM (inactive)
GI50 [6]: 17.6 µM (inactive)
GI50 [9]: 19.5 µM (inactive)
GI50 [10]: 7.19 µM (inactive)
GI50 [11]: 7.82 µM (inactive)
GI50 [14]: 29.9 µM (inactive)
GI50 [15]: 3.48 µM (inactive)
GI50 [12]: 5.22 µM (inactive)
GI50 [13]: 15.4 µM (inactive)

CC1=C(/C(C)=N/NC(=O)C(N)=O)Sc2ccccc2N1
GI50 [1]: > 100 µM (inactive)
GI50 [2]: 65.8 µM (inactive)
GI50 [16]: 95.1 µM (inactive)
GI50 [4]: > 100 µM (inactive)
GI50 [5]: > 100 µM (inactive)
GI50 [6]: > 100 µM (inactive)
GI50 [7]: > 100 µM (inactive)
GI50 [8]: > 100 µM (inactive)
GI50 [9]: > 100 µM (inactive)
GI50 [10]: > 100 µM (inactive)
GI50 [11]: > 100 µM (inactive)
GI50 [14]: > 100 µM (inactive)
GI50 [15]: > 100 µM (inactive)
GI50 [12]: > 100 µM (inactive)
GI50 [13]: > 100 µM (inactive)

O=C(N/C(=C\c1ccc(F)cc1)c1nc2ccccc2[nH]1)c1ccccc1
GI50 [1]: > 100 µM (inactive)
GI50 [2]: 56 µM (inactive)
GI50 [16]: 97.1 µM (inactive)
GI50 [4]: > 100 µM (inactive)
GI50 [5]: > 100 µM (inactive)
GI50 [6]: > 100 µM (inactive)
GI50 [7]: > 100 µM (inactive)
GI50 [8]: > 100 µM (inactive)
GI50 [9]: > 100 µM (inactive)
GI50 [10]: > 100 µM (inactive)
GI50 [11]: > 100 µM (inactive)
GI50 [14]: > 100 µM (inactive)
GI50 [15]: > 100 µM (inactive)
GI50 [12]: > 100 µM (inactive)
GI50 [13]: > 100 µM (inactive)
